Experimental data reported in patent US7572785B2, “Substituted imidazoles as cannabinoid receptor modulators” (Merck & Co., Inc., priority 2001, dated 2009).

melting point: 165 °C
Structure (SMILES): Cn1c(C(=O)NC2CCCCC2)nc(-c2ccc(Cl)cc2Cl)c1-c1ccc(Cl)cc1
